Read-outs that look alike come from different tables or passages of the source.
Assays:
[1] = system: 10 cell lines from a variety of tumor types; assay: Soft agar colony formation assay (3D colonies); format: cell-based; conditions: for IC50: 3D soft agar colonies
Experimental: (§1) In cancer research, natural cell characteristics and architectures can often be more closely mimicked by 3D cell models than monolayer cultures. The comparative efficacy of compound of structural formula I was explored in 2D and 3D culture systems using the soft agar colony formation assay and PDXO cultures. In each case, viability of the culture was assessed after treatment with compound of structural formula I.
(§2) Soft Agar Colony Formation Assay. Soft agar colony formation assay was performed in 10 cell lines from a variety of tumor types ranging from lung cancers to colorectal and prostate cancers (Pro Quinase Reaction Biology, Project Number: 17262). A complete list of tumor types used in the assay can be found in Table 7.1.

[2] = system: 10 cell lines from a variety of tumor types; assay: 2D culture viability (counterpart of soft agar assay); format: cell-based
Experimental: as §1, §2

10 PDXO models = assay: PDXO viability assay (Cell Titre Glo); format: cell-based; conditions: all of the organoids tested, except CR6863B
Experimental: as §1
(§3) Viability Assay in Patient-Derived Xenograft Organoid Cell Lines (PDXO). To mimic more closely cancer tissue-like architecture, PDX organoids derived from patient-derived xenograft tissue were utilized. Viability assay was performed in 10 PDXO models, and the IC50 values were assessed after 5 days of treatment with compound of structural formula I using Cell Titre Glo.

[3] = system: CR6863B organoid (Colorectal); assay: PDXO viability assay (Cell Titre Glo); format: cell-based; conditions: 120 h, 5 days of treatment
Experimental: as §1, §3

[4] = system: CR5088B organoid (Colorectal); assay: PDXO viability assay (Cell Titre Glo); format: cell-based; conditions: 120 h, 5 days of treatment
Experimental: as §1, §3

LU0743B organoid (Lung) = assay: PDXO viability assay (Cell Titre Glo); format: cell-based; conditions: 120 h, 5 days of treatment
Experimental: as §1, §3

[5] = system: GA6891B organoid (Gastric); assay: PDXO viability assay (Cell Titre Glo); format: cell-based; conditions: 120 h, 5 days of treatment
Experimental: as §1, §3

[6] = system: BL5001B organoid (Bladder); assay: PDXO viability assay (Cell Titre Glo); format: cell-based; conditions: 120 h, 5 days of treatment
Experimental: as §1, §3

[7] = system: CR1489B organoid (Colorectal); assay: PDXO viability assay (Cell Titre Glo); format: cell-based; conditions: 120 h, 5 days of treatment
Experimental: as §1, §3

LU6800B organoid (Lung) = assay: PDXO viability assay (Cell Titre Glo); format: cell-based; conditions: 120 h, 5 days of treatment
Experimental: as §1, §3

[8] = system: ES6470B organoid (Esophageal); assay: PDXO viability assay (Cell Titre Glo); format: cell-based; conditions: 120 h, 5 days of treatment
Experimental: as §1, §3

LU11693B organoid (Lung) = assay: PDXO viability assay (Cell Titre Glo); format: cell-based; conditions: 120 h, 5 days of treatment
Experimental: as §1, §3

LU11873B organoid (Lung) = assay: PDXO viability assay (Cell Titre Glo); format: cell-based; conditions: 120 h, 5 days of treatment
Experimental: as §1, §3

[9] = Four-week capsule stability: assay and related substances (HPLC); format: physicochemical; conditions: initial (not stored)
Experimental: Methods: Samples were stored (closed) at 40° C. and […] (RH). Appearance, water content, assay and related substances (HPLC) were tested (n=6), sink dissolution.

Apc^Min+/− mice = assay: ApcMin mouse efficacy model; format: in vivo
Experimental: TNK1 upregulation is reported to play a role in the pathogenic process of intestinal barrier disruption in a transgenic mice model of increased TNK1 expression/activation (PMID: 30320600). Therefore, the efficacy of the compound of structural formula I was evaluated in germline mutant mouse model of intestinal neoplasia and cachexia, Apc^Min+/− model, which is also known to induce gut barrier dysfunction (PMID: 21914473). Apc^Min+/− mice are reported to start the development of tumors at approximately 4 weeks of age. Twenty female Apc^Min+/− mice (JAX Stock No: 002020) were enrolled in the study at the age of 10 weeks. Randomization was done based on the body weight, and animals were divided into four treatment groups (5 mice/group). […] Celecoxib is a COX-2 inhibitor, and was used as a positive control because it has been reported to prevent and regress adenomas in APC model (PMID: 11016626). Mice were sacrificed 2 hours after the last dose of total 10 weeks of dosing (71 days), at the age of 20 weeks. After dosing started, the animals were checked daily for morbidity and mortality.

HT29 cells = assay: Soft agar colony formation assay, 3D vs 2D; format: cell-based; conditions: for IC50: Homo sapiens, HT-29, HT29, Colorectal
Experimental: as §1, §2

A549 cells = assay: Soft agar colony formation assay, 3D vs 2D; format: cell-based; conditions: for IC50: Homo sapiens, A549, Lung
Experimental: as §1, §2

DU145 cells = assay: Soft agar colony formation assay, 3D vs 2D; format: cell-based; conditions: for IC50: Homo sapiens, DU-145, DU145, Prostate
Experimental: as §1, §2

[10] = Homo sapiens, HCT-116, HCT116, Colorectal
[11] = 3D soft agar colonies, read-out: 3D IC50

IC50 ([1]; Homo sapiens, A2058, A2058, Melanoma): 980 nM | IC50 ([1]; Homo sapiens, C-33-A, C33A, Cervical): 900 nM | IC50 [1, 10]: 750 nM | IC50 ([1]; Homo sapiens, LoVo, Colorectal): 2900 nM | IC50 ([1]; Homo sapiens, SW948, SW948, Colorectal): 730 nM | IC50 ([1]; PC3, Prostate): 870 nM | IC50 ([1]; T84, Colorectal): 1500 nM | Related substance at RRT 0.84 [9]: <0.05% | Related substance at RRT 0.89 [9]: 0.15% | Related substance at RRT 0.97 [9]: 0.15% | Related substance at RRT 1.08 [9]: 0.11% | Related substance at RRT 1.13 [9]: <0.05% | Related substance at RRT 1.20 [9]: 0.09% | Related substance at RRT 1.21 [9]: 0.05% | Related substance at RRT 1.24 [9]: 0.08% | Related substance at RRT 1.29 [9]: <0.05% | Related substance at RRT 1.33 [9]: <0.05% | Total Impurities [9]: 0.63% | shift in IC50, 3D colonies vs 2D (HT29 cells; HT29): approximately 32 fold | IC50 (HT29 cells; 2D culture, read-out: 2D IC50): 7680 nM | IC50 (HT29 cells; [11]): 240 nM | shift in IC50, 3D colonies vs 2D (A549 cells; A549): approximately 40 fold | IC50 (A549 cells; 2D culture, read-out: 2D IC50): > 10000 nM | IC50 (A549 cells; [11]): 250 nM | shift in IC50, 3D colonies vs 2D (DU145 cells; DU145): approximately 19 fold | IC50 (DU145 cells; 2D culture, read-out: 2D IC50): 2700 nM | IC50 (DU145 cells; [11]): 140 nM
SMILES: COc1cc(N2CCN(C)CC2)c(Cl)cc1Nc1ncc(Cl)c(Nc2cccnc2N2CCCC2=O)n1 [compound of structural formula I, 1-(3-((5-chloro-2-((5-chloro-2-methoxy-4-(4-methylpiperazin-1-yl)phenyl)amino)pyrimidin-4-yl)amino)pyridin-2-yl)pyrrolidin-2-one]
sensitivity of 3D colonies compared to 2D counterparts (in words) ([1]; most of the cell lines tested): increased sensitivity | IC50 [2, 10]: 3360 nM | IC50 ([2]; Homo sapiens, Lovo, Colorectal): 3580 nM | IC50 ([2]; PC3, Prostate): > 10000 nM | IC50 (10 PDXO models): < 10000 nM | IC50 [3]: 10100 nM | IC50 [4]: 3250 nM | IC50 (LU0743B organoid (Lung)): 2430 nM | IC50 [5]: 1240 nM | IC50 [6]: 400 nM | IC50 [7]: 2180 nM | IC50 (LU6800B organoid (Lung)): 400 nM | IC50 [8]: 510 nM | IC50 (LU11693B organoid (Lung)): 2120 nM | IC50 (LU11873B organoid (Lung)): 440 nM | reduction of spleen size compared to vehicle (Apc^Min+/− mice; 10 mg/kg): approximately 52% | reduction of spleen size compared to vehicle (Apc^Min+/− mice; 25 mg/kg): approximately 40% | decrease in number of polyps in the intestine compared to vehicle (Apc^Min+/− mice; 25 mg/kg once daily oral gavage, 10 weeks, female Apc^Min+/− mice): approximately 49% | mean spleen weight (Apc^Min+/− mice; 25 mpk): 191 mg | polyp growth (Apc^Min+/− mice; FIG. 8B): inhibits polyp growth | splenomegaly and inflammation (Apc^Min+/− mice; FIG. 8C): attenuated

From patent US20240091226A1, “Forms and Formulations Of A Tyrosine Kinase Non-Receptor 1 (TNK1) Inhibitor” (Sumitomo Pharma Oncology, inc., priority 2021, published 2024)
